One assay relates to human Aha1 mRNA. In words: siRNA transfection screening (siAha1 vs siGL3 control, bDNA assay of Aha1/GAPDH mRNA). The conditions noted are these: 20 μM; threshold value of FIG. 3. The format is cell-based. How it is done: For the quantification of cellular mRNA levels bDNA (branched DNA) assays were performed which enable the detection of individual mRNA levels. To this end, a defined number of the cells to be analyzed was seeded into 96-well plates and allowed to attach over night. On the next day, the cells were transfected with siRNA.
After further 24 hours, the mRNA species were quantified using the QuantiGene Plex 2.0 assay kit according to the manufacturers instructions (Affymetrix Inc., Santa Clara, Calif., USA). In brief, cell lysates were transferred to a capture plate in the presence of a gene-specific probe set and incubated at 53° C. over night. After washing, the wells were sequentially incubated at 53° C. with an amplifier agent and an alkaline phosphatase (AP)-linked label probe with a washing step in between. Subsequently, the luminescent AP substrate dioxitane was added and incubated for 30 min at 53° C. Luminescence was assayed using an InfiniteF200 luminescence reader (Tecan Austria GmbH, Groding, Austria).
In order to analyze the potential CPPs for their ability to transfect siRNA into mammalian cells an increasing peptide concentration (from 1 μM to 20 μM) was employed along with a constant siRNA concentration (100 nM). This range of peptide concentrations was used as it had been shown that positively charged peptides such as TAT are internalized into cells in ranges up to 10 μM and remain in intracellular membrane compartments without significant egress into the cytosol (Duchardt, F. et al. (2007) Traffic 8, 848-866). […] A concentration of 10 nM siRNA is in the saturation range as determined in control experiments using the DharmaFECT transfection reagent (Dharmacon, Inc., Lafayette, Colo., USA; data not shown).
The siRNA oligonucleotides employed were directed against human Aha1 mRNA (Panaretou, B. et al. (2002) Mol. Cell 10, 1307-1318) or against luciferase mRNA as a control.
Complexes of siRNA and the respective peptides were formed in OptiMEM medium and incubated for 15 minutes at room temperature. The cells were incubated in the presence of the complexes for three hours in OptiMEM. After washing, the cells were incubated for further 21 or 45 hours in normal growth medium. Thereafter, the levels of Aha1 mRNA and a reference mRNA (i.e. GAPDH mRNA) were measured by means of a bDNA assay. These assays were performed with cells that were transfected with siAHA1 and with a control siRNA (siGL3, luciferase), respectively.
As a measure for specific RNAi, the reduction of Aha1 mRNA levels relative to GAPDH mRNA levels was compared in siAHA1-transfected cells and siGL3-transfected cells. Specific siRNA mediated transfection causes a reduction in Aha1/GAPDH mRNA values in siAhA1-compared to siGL3-transfected cells. FIG. 3 depicts the screening readout of these assays: the Aha1/GAPDH mRNA values of non-transfected control cells were set to 100% (for each assay), and the Aha1/GAPDH mRNA values of siAha1- or siGL3-transfected cells were expressed relative to that. For this normalized data set, the differences between the respective Aha1/GAPDH mRNA levels of siAha1- and siGL3-transfected cells were determined. Specific peptides caused a significant reduction in siAha1 transfection without reducing siGL3 transfections, which results in positive difference values. The more pronounced these values are, the more specific RNAi is observed (cf. FIG. 3).

Another assay concerns siRNA duplex. The assay is described as follows: gel-shift assay of peptide/siRNA complex formation. The format is binding. The conditions noted are these: ethidium bromide staining. How it is done: Gel-shift assays were performed by mixing […] siRNA duplex with the respective peptides in a given molar ratio in water. The complexes were formed for 1 hour at 37° C. and analyzed on a 2.5% agarose gel with ethidium bromide (run: 40 minutes at 125 V). For proteinase K treatment, 1 μl proteinase K was added to a standard reaction as indicated above.
Mechanisms that may explain transfection functionalities of charged peptides such as TAT or protamine include the formation of complexes between positively charged peptides and negatively charged nucleic acids. Such complexes enable peptide-mediated membrane-interacting and/or endosome escape functionalities to transfer the complexed nucleic acids into the cytosol of cells (Law, M. et al. (2008) Biotechnol. Prog. 24, 957-963) In order to address whether the above mechanism may apply to the NTRN-derived peptide as well gel-shift assays were performed (cf. FIG. 8). To this end, siRNA was co-incubated with increasing concentrations of peptide, followed by analyses of their migration pattern via gel electrophoresis.

Assay [1] relates to MCF-7 human breast cancer cells. In words: cell viability/apoptosis after 24 h exposure to pro-apoptotic peptides and CPP fusions. The format is cell-based. As to conditions: MCF-7 cells, various concentrations. On the procedure: MCF-7 human breast cancer cells were incubated for 24 h in the presence of various concentrations of NRTN (squares), Nur (circles), and NurNRTN (triangles) peptides. The respective amino acid sequences are given in the bottom panel. The experimental approach for assessing cell viability (and thus induction of apoptosis) was the same as in FIG. 3.
MCF-7 human breast cancer cells were incubated for 24 h in the presence of various concentrations of 4E-BP1 (circles), TAT4E-BP1 (squares), and NRTN4E-BP1 (triangles) peptides (top panel). […] The respective amino acid sequences are given in the bottom panel. The experimental approach for assessing cell viability (and thus induction of apoptosis) was the same as in FIG. 3.
Luminescence was analyzed in an InfiniteF200 luminescence reader.
Then, the cells were treated with a luminogenic peptide substrate in order to measure dead-cell protease activity, which is released from cells that have lost membrane integrity. […] The luminescence of this assay therefore represents dead cells. The 96 well plates were then analyzed in an InfiniteF200 luminescence reader.
Despite its proven ability to convert BCL-2 into a pro-apoptotic molecule, addition of the latter peptide (i.e. “Nor/Nur”; SEQ ID NO: 72) to cancer cells, even in high concentrations, is not sufficient to induce apoptosis, as the cellular target protein is located in the cytoplasm, but the peptide per se cannot effectively penetrate through the cell membrane to reach the target. In brief, MCF-7 breast cancer cells were incubated in the presence of this peptide for 24 h.
Subsequently, it was evaluated whether the NurNRTN fusion peptide is capable of penetrating cellular membranes and thereby induces pro-apoptotic activity within cells. MCF-7 human breast cancer cells were used as a model. The experimental approach was as described above (cf. Example 1). […] This effect was dose dependent: cytotoxicity increased with increasing concentrations of peptide.
Subsequently, it was evaluated whether the NRTN4E-BP1 fusion peptide is capable of penetrating cellular membranes and thereby induces pro-apoptotic activity within cells. MCF-7 human breast cancer cells were used as a model. The experimental approach was as described above (cf. Example 1). […] This effect was dose dependent: cytotoxicity increased with increasing concentrations of peptide.

The target in a further assay is T1, recombinant BCL2 (Homo sapiens, UniProt P10415).
T1 construct: purchased Calbiochem/Merck, Darmstadt, Germany
The assay is described as follows: BCL2 binding to bead-immobilized peptides. The conditions noted are these: iodoacetyl beads, elution buffer pH 2.8, protein stain. On the procedure:
In order to determine whether the BCL2 binding properties of the Nur77-derived peptide are maintained in the NurNRTN fusion peptide, the respective NurNRTN and NRTN peptides were coupled to iodoacetyl beads (Pierce Biotechnology, Inc., Rockford, Ill., USA). The beads were incubated with recombinant BCL2 (Calbiochem/Merck, Darmstadt, Germany) and washed with PBS and 0.5 M NaCl, 0.025 NaN3, 0.05% Tween20 to remove unbound protein. Specific binding of BCL2 to the immobilized NurNTRN fusion peptide was determined by eluting bound […] from the beads with elution buffer (pH 2.8), transfer of the eluted fraction to nitrocellulose (Invitrogen Corporation, Carlsbad, Calif., USA), and protein detection by means of the MemCode Reversible Protein Stain Kit (Pierce Biotechnology, Inc., Rockford, Ill., USA).

T1 sequence (P10415 whole entry): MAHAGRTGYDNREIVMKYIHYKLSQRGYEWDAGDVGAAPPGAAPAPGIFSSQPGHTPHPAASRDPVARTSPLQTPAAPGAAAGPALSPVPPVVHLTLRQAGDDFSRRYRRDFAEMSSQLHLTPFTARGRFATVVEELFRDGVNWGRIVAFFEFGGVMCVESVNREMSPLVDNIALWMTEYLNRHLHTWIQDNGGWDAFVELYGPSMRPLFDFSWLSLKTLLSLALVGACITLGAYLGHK

Turning to “GRKKRRQRRRPPQ (Human immunodeficiency virus 1; TAT peptide sequence) [reference compound]”, the “difference of Aha1/GAPDH for luciferase siRNA and Aha1/GAPDH for Aha1 siRNA (Transfection)” value in the assay on human Aha1 mRNA is on record as 18%. Further, the “complex formation with siRNA” value with siRNA duplex is reported as “forms complexes with the siRNA molecules”.
In the case of “FSRSLHSLLYDLGLRRLRQRRRLRRERVRA (NurNRTN peptide sequence)”, the “cell viability / induction of apoptosis” value in assay [1] is on record as “remarked cytotoxicity”. Besides, the “BCL2 in eluates from peptide-coated beads” value with recombinant BCL2 is reported as “BCL2 can be detected in eluates”.
